Laboratory results reported in patent US11753446B2, “Beta-hairpin peptidomimetics” (POLYPHOR AG, priority 2014, dated 2023).
Where a SMILES comes first, the peptide text is derived from it. Bridges are numbered along the chain shown (N, C = ends). [ ]: non-standard residue; d: D form. dPen = CC(C)(S)[C@@H](N)C(=O)O; Chg = N[C@H](C(=O)O)C1CCCCC1; Tle = CC(C)(C)[C@H](N)C(=O)O; dDab = NCC[C@@H](N)C(=O)O; Orn = NCCC[C@H](N)C(=O)O; Dab = NCC[C@H](N)C(=O)O; Dap = NC[C@H](N)C(=O)O

Experiments:
[1] = test system: Acinetobacter baumannii DSM 30008; assay type: cell-based; conditions: DSM 30008
Experimental: (§1) Stock solutions were kept at +4° C., light protected.
(§2) The selective antimicrobial activities of the peptides were determined in 96-well plates (Greiner, polystyrene) by the standard NCCLS broth microdilution method (National Committee for Clinical Laboratory Standards 1993. Methods for dilution antimicrobial susceptibility tests for bacteria that grow aerobically, 3rd ed. Approved standard M7-A6; National Committee for Clinical laboratory standards, Wayne, Pa.) with slight modifications. Inocula of the microorganisms were diluted into Mueller-Hinton II (MH, cation adjusted) broth and compared with a 0.5 McFarland standard to give appr. 10^6 colony forming units (CFU)/mL. Aliquots (90 μl) of inoculate were added to 10 μl of MH broth+P-80 (Polysorbate 80, 0.002% final concentration) containing the peptide in serial two-fold dilutions. The following microorganisms were used to determine antibiotic selectivity of the peptides: Escherichia coli ATCC 25922, Klebsiella pneumoniae ATCC 13883 and Acinetobacter baumannii DSM 30008.

[2] = test system: Escherichia coli ATCC 25922; assay type: cell-based; conditions: ATCC 25922
Experimental: as §1, §2

[3] = test system: Klebsiella pneumoniae ATCC 13883; assay type: cell-based; conditions: ATCC 13883
Experimental: as §1, §2

[4] = test system: human red blood cells (hRBC); assay: Hemolysis: hemolytic activity at 100 μg/mL, 1 h at 37° C.; conditions: red cells of human, 1 h, 100
Experimental: Lyophilized peptides were weighed on a Microbalance (Mettler MT5) and dissolved in sterile water to a final concentration of 1 mg/mL. Stock solutions were kept at +4° C., light protected.
The peptides were tested for their hemolytic activity against human red blood cells (hRBC). Fresh hRBC were washed three times with phosphate buffered saline (PBS) and centrifuged for 5 min at 3000×g. Compounds (100 μg/mL) were incubated with 20% hRBC (v/v) for 1 h at 37° C. and shaking at 300 rpm. The final erythrocyte concentration was approximately 0.9×10^9 cells/mL. A value of 0% and 100% cell lyses, respectively, was determined by incubation of hRBC in the presence of PBS containing 0.001% acetic acid and 2.5% Triton X-100 in H2O, respectively. The samples were centrifuged, the supernatants were 8-fold diluted in PBS buffer and the optical densities (OD) were measured at 540 nm.
Percent hemolysis was calculated as follows: (OD540peptide/OD540H2O)×100%.

Compound	Acinetobacter baumannii DSM 30008 MIC [1]	Escherichia coli ATCC 25922 MIC [2]	Klebsiella pneumoniae ATCC 13883 MIC [3]	Hemolysis at 100 μg/mL [4]
CC(C)C[C@@H]1NC(=O)[C@@H]2CCCN2C(=O)[C@@H](CCN)NC(=O)[C@H](CO)NC(=O)[C@H](C(C)C)NC(=O)[C@H](C(C)(C)C)NC(=O)[C@@H]2CC(=O)NCC[C@H](NC(=O)[C@H](Cc3ccc(O)cc3)NC(=O)[C@H](Cc3ccc(O)cc3)NC1=O)C(=O)N[C@@H](CCCN)C(=O)N[C@H](CCN)C(=O)N[C@@H](CCN)C(=O)N[C@@H](Cc1c[nH]c3ccccc13)C(=O)N2 [Example 41, cyclo(-Leu-Tyr-Tyr-Dab-Orn-^DDab-Dab-Trp-Asp-tBuGly-Val-Ser-^DDab-Pro-)] (cyclo(D[Tle]VS[dDab]PLYY[Dab][Orn][dDab][Dab]W); lactam 1-10)	2 µg/mL	2 µg/mL	1 µg/mL	2%
CC(C)C[C@@H]1NC(=O)[C@@H]2CCCN2C(=O)[C@@H](C)NC(=O)[C@H](CO)NC(=O)[C@@H]2CC(=O)NCC[C@H](NC1=O)C(=O)N[C@@H](Cc1ccc(O)cc1)C(=O)N[C@@H](CCN)C(=O)N[C@@H](CCN)C(=O)N[C@@H](CCN)C(=O)N[C@@H](CCN)C(=O)N[C@@H](Cc1c[nH]c3ccccc13)C(=O)N[C@@H](CCN)C(=O)N[C@@H](C(C)(C)C)C(=O)N2 [Example 26, cyclo(-Leu-Dab-Tyr-Dab-Dab-Dab-Dab-Trp-Dab-tBuGly-Asp-Ser-^DAla-Pro-)] (HELM PEPTIDE1{D.S.[dA].P.L.[Dab].Y.[Dab].[Dab].[Dab].[Dab].W.[Dab].[CC(C)(C)[C@H](N[*:1])C(=O)[*:2]]}$PEPTIDE1,PEPTIDE1,1:R3-6:R3|PEPTIDE1,PEPTIDE1,1:R1-14:R2$$$V2.0)	2 µg/mL	2 µg/mL	1 µg/mL	1%
CC(C)C[C@@H]1NC(=O)[C@H](CCCNC(=N)N)NC(=O)[C@@H](CCN)NC(=O)[C@H](C(C)C)NC(=O)[C@@H]2CSSC[C@H](NC1=O)C(=O)N[C@@H](Cc1ccc(O)cc1)C(=O)N[C@@H](CC(N)=O)C(=O)N[C@@H](CCCN)C(=O)N[C@H](CCN)C(=O)N[C@@H](CCN)C(=O)N[C@@H](Cc1c[nH]c3ccccc13)C(=O)N[C@@H](CO)C(=O)N[C@@H](Cc1ccc(O)cc1)C(=O)N2 [Example 10, cyclo(-Leu-Cys-Tyr-Asn-Orn-^DDab-Dab-Trp-Ser-Tyr-Cys-Val-^DDab-Arg-)] (HELM PEPTIDE1{C.V.[NCC[C@@H](N[*:1])C(=O)[*:2]].R.L.C.Y.N.[Orn].[NCC[C@@H](N[*:1])C(=O)[*:2]].[Dab].W.S.Y}$PEPTIDE1,PEPTIDE1,1:R3-6:R3|PEPTIDE1,PEPTIDE1,1:R1-14:R2$$$V2.0)	0.5 µg/mL	0.5 µg/mL	1 µg/mL	1%
CC(C)C[C@@H]1NC(=O)[C@H](CCN)NC(=O)[C@@H](CCN)NC(=O)[C@H]([C@@H](C)O)NC(=O)[C@@H]2CSSC[C@H](NC1=O)C(=O)N[C@@H](Cc1ccc(O)cc1)C(=O)N[C@@H](CC(N)=O)C(=O)N[C@@H](CCCN)C(=O)N[C@H](CCN)C(=O)N[C@@H](CCN)C(=O)N[C@@H](Cc1c[nH]c3ccccc13)C(=O)N[C@@H](CO)C(=O)N[C@@H](Cc1ccc(O)cc1)C(=O)N2 [Example 7, cyclo(-Leu-Cys-Tyr-Asn-Orn-^DDab-Dab-Trp-Ser-Tyr-Cys-Thr-^DDab-Dab-)] (HELM PEPTIDE1{C.T.[NCC[C@@H](N[*:1])C(=O)[*:2]].[Dab].L.C.Y.N.[Orn].[NCC[C@@H](N[*:1])C(=O)[*:2]].[Dab].W.S.Y}$PEPTIDE1,PEPTIDE1,1:R3-6:R3|PEPTIDE1,PEPTIDE1,1:R1-14:R2$$$V2.0)	2 µg/mL	2 µg/mL	1 µg/mL	1%
CC(C)C[C@@H]1NC(=O)[C@@H]2CCCN2C(=O)[C@H]2CCCN2C(=O)[C@H](CO)NC(=O)[C@@H]2NC(=O)[C@H](C3CCCCC3)NC(=O)[C@H](CCN)NC(=O)[C@H](Cc3c[nH]c4ccccc34)NC(=O)[C@H](CCN)NC(=O)[C@@H](CCN)NC(=O)[C@H](CCCN)NC(=O)[C@H](CCN)NC(=O)[C@H](C(C)(C)C)NC(=O)[C@H](NC1=O)C(C)(C)SSC2(C)C [Example 33, cyclo(-Leu-Pen-tBuGly-Dab-Orn-DDab-Dab-Trp-Dab-Chg-Pen-Ser-^DPro-Pro-)] (cyclo(L[dPen][Tle][Dab][Orn][dDab][Dab]W[Dab][Chg][dPen]S[dP]P); disulfide 2-11)	1 µg/mL	1 µg/mL	2 µg/mL	1%
CC(C)C[C@@H]1NC(=O)[C@H](CCCNC(=N)N)NC(=O)[C@@H](CCN)NC(=O)[C@H](C(C)C)NC(=O)[C@@H]2CSSC[C@H](NC1=O)C(=O)N[C@@H](C(C)C)C(=O)N[C@@H](CC(N)=O)C(=O)N[C@@H](CCCN)C(=O)N[C@H](CCN)C(=O)N[C@@H](CCN)C(=O)N[C@@H](Cc1c[nH]c3ccccc13)C(=O)N[C@@H](CO)C(=O)N[C@@H](Cc1ccc(O)cc1)C(=O)N2 [Example 18, cyclo(-Leu-Cys-Val-Asn-Orn-^DDab-Dab-Trp-Ser-Tyr-Cys-Val-^DDab-Arg-)] (HELM PEPTIDE1{C.V.N.[Orn].[NCC[C@@H](N[*:1])C(=O)[*:2]].[Dab].W.S.Y.C.V.[NCC[C@@H](N[*:1])C(=O)[*:2]].R.L}$PEPTIDE1,PEPTIDE1,1:R3-10:R3|PEPTIDE1,PEPTIDE1,1:R1-14:R2$$$V2.0)	0.25 µg/mL	0.5 µg/mL	0.5 µg/mL	8%
CC(C)[C@@H]1NC(=O)[C@@H]2CCCN2C(=O)[C@@H](C)NC(=O)[C@H]([C@@H](C)O)NC(=O)[C@H](CO)NC(=O)[C@H](C(C)(C)C)NC(=O)[C@H](CCN)NC(=O)[C@H](Cc2c[nH]c3ccccc23)NC(=O)[C@H](CCN)NC(=O)[C@@H](CCN)NC(=O)[C@H](CCN)NC(=O)[C@H](CCN)NC(=O)[C@H](Cc2ccc(O)cc2)NC(=O)[C@H](CN)NC1=O [Example 46, cyclo(-Val-Dap-Tyr-Dab-Dab-^DDab-Dab-Trp-Dab-tBuGly-Ser-Thr-^DAla-Pro-)] (cyclo([Dab][Dab][dDab][Dab]W[Dab][Tle]ST[dA]PV[Dap]Y))	1 µg/mL	1 µg/mL	0.5 µg/mL	0%
CC(C)C[C@@H]1NC(=O)[C@H](CCCNC(=N)N)NC(=O)[C@H]2CCCN2C(=O)[C@H](C(C)C)NC(=O)[C@@H]2CSSC[C@H](NC1=O)C(=O)N[C@@H](Cc1ccc(O)cc1)C(=O)N[C@@H](C)C(=O)N[C@@H](CCN)C(=O)N[C@H](CCN)C(=O)N[C@@H](CCN)C(=O)N[C@@H](Cc1c[nH]c3ccccc13)C(=O)N[C@@H](C)C(=O)N[C@@H](C(C)C)C(=O)N2 [Example 2, cyclo(-Leu-Cys-Tyr-Ala-Dab-^DDab-Dab-Trp-Ala-Val-Cys-Val-^DPro-Arg-)] (HELM PEPTIDE1{A.[Dab].[NCC[C@@H](N[*:1])C(=O)[*:2]].[Dab].W.A.V.C.V.[dP].R.L.C.Y}$PEPTIDE1,PEPTIDE1,8:R3-13:R3|PEPTIDE1,PEPTIDE1,1:R1-14:R2$$$V2.0)	2.5 µg/mL	4 µg/mL	2 µg/mL	5%
CC[C@@H]1NC(=O)[C@H](CCCNC(=N)N)NC(=O)[C@@H](CCN)NC(=O)[C@H](C(C)C)NC(=O)[C@@H]2CSSC[C@H](NC1=O)C(=O)N[C@@H](Cc1ccc(O)cc1)C(=O)N[C@@H](CC(N)=O)C(=O)N[C@@H](CCCN)C(=O)N[C@H](CCN)C(=O)N[C@@H](CCN)C(=O)N[C@@H](Cc1c[nH]c3ccccc13)C(=O)N[C@@H](CO)C(=O)N[C@@H](Cc1ccc(O)cc1)C(=O)N2 [Example 61, cyclo(-Abu-Cys-Tyr-Asn-Orn-^DDab-Dab-Trp-Ser-Tyr-Cys-Val-^DDab-Arg-)] (HELM PEPTIDE1{[Abu].C.Y.N.[Orn].[NCC[C@@H](N[*:1])C(=O)[*:2]].[Dab].W.S.Y.C.V.[NCC[C@@H](N[*:1])C(=O)[*:2]].R}$PEPTIDE1,PEPTIDE1,2:R3-11:R3|PEPTIDE1,PEPTIDE1,1:R1-14:R2$$$V2.0)	1.5 µg/mL	2 µg/mL	2 µg/mL	1%
